Laboratory results as given in PMC7339578, “Multiple circulating alkaloids and saponins from intravenous Kang-Ai injection inhibit human cytochrome P450 and UDP-glucuronosyltransferase isozymes: potential drug–drug interactions” (Chinese Medicine, 2020).
“And” between values parts separate entries of the source, which are not always exact repeats. Equal values may be shown once. Read-outs that look alike come from different tables or passages of the source. Blank lines part the entries; values can stand above or below the compound they belong to.

Columns and labels:
Assay type in all cases: in vivo, Sprague–Dawley rats
[1] = Urinary (renal) excretion in rats after a 30-min infusion of Kang-Ai injection
Method: (§1) For urine sampling, the rats were housed singly in metabolic cages. And then, the urine samples were collected at 0–4, 4–8 and 8–12 h after starting infusion and were weighed. Likewise, bile samples were also collected at 0–3, 3–6, 6–9 and 9–12 h after starting infusion and were weighed. The urine and bile collection tubes were all frozen at − 80 °C.
(§2) Pharmacokinetic parameters were estimated by non-compartmental analysis using WinNonlin 6.3 software (Pharsight, NC, US). Data are presented as the mean ± SD (n = 3). The area under the concentration–time curve up to the last measured point in time (AUC0-t) was calculated using the trapezoidal rule. The total plasma clearance (CLtot, p) was calculated by dividing the compound dose by the AUC0-∞, and the distribution volume at steady state (VSS) was estimated by multiplying the CLtot, p by the mean residence time (MRT). The renal excretory clearance (CLR) and hepatobiliary (CLB) was determined by dividing the cumulative amount excreted into urine (Cum.Ae-U) and bile (Cum.Ae-B) by the plasma AUC0-∞, respectively. The fractions of dose excreted into urine (fe-U) and the fractions of dose excreted into bile (fe-B) were established using the relationship Cum.Ae-U/Dose and Cum.Ae-B/Dose, respectively. Mean differences between treatment and control groups were analyzed by two-tailed unpaired Student’s t test by Graphpad Prism V5 software (SanDiego, CA). The level of significance was set at p < 0.05 (∗), p < 0.01 (∗∗) or p < 0.001 (∗∗∗).

[2] = Biliary (hepatobiliary) excretion in rats after a 30-min infusion of Kang-Ai injection
Method: as §1, §2

[3] = Plasma pharmacokinetics in rats after a 30-min intravenous infusion of Kang-Ai injection
Method: Specific pathogen free (SPF) grade male Sprague–Dawley rats (250 ± 20) g were provided by the Experimental Animal Center of Zhengzhou University (Zhengzhou, China). These rats were kept in a designated animal room at constant temperature (22 ± 2) °C and humidity (50 ± 20) % with 12 h of light/dark per day and free access to water and food. All protocols of animal experiments were approved in accordance with the Regulations of Experimental Animal Administration issued by the Ethics Review Committee for Animal Experimentation of Jinan University (Ethical Review NO. 20190301010). Prior to the experiments, the rats were fasted for 12 h but with free access to water. After study use, the rats were euthanized with CO2 gas.
The rats in this study all received a single 30-min intravenous infusion of Kang-Ai injection via the tail veins using TYD01-02 infusion pumps (Lead Fluid, Baoding, China). The dose was derived from the label daily dose of Kang-Ai injection (60 mL/person, once daily) according to dose normalization by body surface area. For plasma pharmacokinetic studies, the rats were randomly received a single intravenous 30 min-bolus dose at 6 mL/kg. Blood samples (100 μL) were collected from the rats’ external jugular veins into heparinized polypropylene tubes at 5, 15, 30, 45 min, and 1, 1.5, 2, 3, 4, 6, 8, 12 h. After gently shaking for 10 s, the blood samples were centrifuged at 13000 g for 10 min to yield plasma samples, which were kept frozen at − 80 °C until analysis.
as §2

[4] = rat urine 0–12 h, Kang-Ai injection 6 mL/kg iv
[5] = rat bile 0–12 h, Kang-Ai injection 6 mL/kg iv
[6] = male, Sprague-Dawley, rat, in vivo, iv

fe-U,0–12h (fraction of dose excreted into urine) ([1]; rat, in vivo, iv): 42.80 ± 14.69% | fe-B,0–12h (fraction of dose excreted into bile) ([2]; rat, in vivo, iv): 11.14 ± 1.05%
Compound: 9α-hydroxysophoramine [Compound A4]

Compound: O=c1cccc2n1C[C@H]1C[C@@H]2CN2CC[C@H](O)C[C@H]12 [Compound A5, Baptifoline]
t1/2 ([3]; rat plasma, 30-min iv infusion of Kang-Ai injection 6 mL/kg): 2.15 ± 0.50 h | Cmax ([3]; rat plasma, 30-min iv infusion of Kang-Ai injection 6 mL/kg, read-out: Cmax): 264 ± 47.2 nM | fe-U,0–12h (fraction of dose excreted into urine) [1, 4]: 37.56 ± 15.13% | fe-B,0–12h (fraction of dose excreted into bile) [2, 5]: 10.30 ± 1.11%

CLtot, p ([3]; rat, in vivo, iv): 47.70 ± 10.72 mL/h | Cmax ([3]; rat, in vivo, iv): 344 ± 40.7 nM | VSS ([3]; rat, in vivo, iv): 93.63 ± 24.86 mL | t1/2 ([3]; rat, in vivo, iv): 2.16 ± 1.28 h | CLR (renal excretory clearance) ([1]; rat, in vivo, iv): 6.23 ± 2.97 mL/h | fe-U,0–12h (fraction of dose excreted into urine) ([1]; rat, in vivo, iv): 12.92 ± 4.98% | CLB (hepatobiliary clearance) ([2]; rat, in vivo, iv): 5.86 ± 1.10 mL/h | fe-B,0–12h (fraction of dose excreted into bile) ([2]; rat, in vivo, iv): 12.50 ± 1.32%
Compound: O=C1C=CC[C@@H]2[C@H]3C[C@H](O)CN4CCC[C@@H](CN12)[C@@H]34 [Compound A6, 9α-hydroxysophocarpine]

CLtot, p ([3]; rat, in vivo, iv): 20.03 ± 4.84 mL/h | Cmax ([3]; rat, in vivo, iv): 202 ± 19.1 nM | MRT ([3]; rat, in vivo, iv): 7.94 h | VSS ([3]; rat, in vivo, iv): 150.70 ± 19.02 mL | t1/2 ([3]; rat, in vivo, iv): 5.73 ± 1.74 h | CLR (renal excretory clearance) ([1]; rat, in vivo, iv): 12.32 ± 4.14 mL/h | fe-U,0–12h (fraction of dose excreted into urine) ([1]; rat, in vivo, iv): 61.05 ± 10.61% | CLB (hepatobiliary clearance) ([2]; rat, in vivo, iv): 1.42 ± 0.17 mL/h | fe-B,0–12h (fraction of dose excreted into bile) ([2]; rat, in vivo, iv): 7.30 ± 1.41%
Compound: O=C1CCCC2=C3CCC[N+]4([O-])CCC[C@@H](CN12)[C@@H]34 (some centres unmarked) [Compound A7, Leontalbinine N-oxide]

Compound: O=c1cccc([C@@H]2C[C@H](CO)[C@H]3CCCCN3C2)[nH]1 [Compound A8, Mamanine]
CLtot, p ([3]; rat, in vivo, iv): 7.93 ± 1.77 mL/h | Cmax ([3]; rat, in vivo, iv): 421 ± 68.1 nM | VSS ([3]; rat, in vivo, iv): 16.89 ± 5.16 mL | t1/2 ([3]; rat, in vivo, iv): 2.32 ± 1.03 h | CLR (renal excretory clearance) ([1]; rat, in vivo, iv): 1.23 ± 0.50 mL/h | fe-U,0–12h (fraction of dose excreted into urine) ([1]; rat, in vivo, iv): 15.28 ± 5.11% | CLB (hepatobiliary clearance) ([2]; rat, in vivo, iv): 2.67 ± 0.46 mL/h | fe-B,0–12h (fraction of dose excreted into bile) ([2]; rat, in vivo, iv): 34.12 ± 4.23%

fe-B,0–12h (fraction of dose excreted into bile) ([2]; rat, in vivo, iv): 30.40 ± 3.79%
Compound: CC(C)(O[C@@H]1O[C@H](CO)[C@@H](O)[C@H](O)[C@H]1O)[C@@H]1CC[C@](C)([C@H]2[C@@H](O)C[C@@]3(C)[C@@H]4C[C@H](O)[C@H]5C(C)(C)[C@@H](O[C@@H]6OC[C@@H](O)[C@H](O)[C@H]6O)CC[C@@]56C[C@@]46CC[C@]23C)O1 [Compound B1, Isoastragaloside IV]

Compound: CC(C)(O)[C@@H]1CC[C@](C)([C@H]2[C@@H](O)C[C@@]3(C)[C@@H]4C[C@H](O[C@@H]5O[C@H](CO)[C@@H](O)[C@H](O)[C@H]5O)[C@H]5C(C)(C)[C@@H](O[C@@H]6OC[C@@H](O)[C@H](O)[C@H]6O[C@@H]6O[C@H](CO)[C@@H](O)[C@H](O)[C@H]6O)CC[C@@]56C[C@@]46CC[C@]23C)O1 [Compound B4, Astragaloside VI]
fe-U,0–12h (fraction of dose excreted into urine) [1, 4]: 63.43 ± 11.75%

fe-U,0–12h (fraction of dose excreted into urine) ([1]; rat, in vivo, iv): 51.36 ± 7.44%
Compound: CC(C)(O[C@@H]1O[C@H](CO)[C@@H](O)[C@H](O)[C@H]1O)[C@@H]1CC[C@](C)([C@H]2[C@@H](O)C[C@@]3(C)[C@@H]4C[C@H](O)[C@H]5C(C)(C)[C@@H](O[C@@H]6OC[C@@H](O)[C@H](O)[C@H]6O[C@@H]6O[C@H](CO)[C@@H](O)[C@H](O)[C@H]6O)CC[C@@]56C[C@@]46CC[C@]23C)O1 [Compound B5, Astragaloside V]

Compound: CC(C)=CCC[C@](C)(O[C@@H]1O[C@H](CO)[C@@H](O)[C@H](O)[C@H]1O)[C@H]1CC[C@]2(C)[C@@H]1[C@H](O)C[C@@H]1[C@@]3(C)CC[C@H](O)C(C)(C)[C@@H]3[C@@H](O)C[C@]12C [Compound C2, Ginsenoside F1]
fe-U,0–12h (fraction of dose excreted into urine) [1, 4]: 23.37 ± 7.94% | fe-B,0–12h (fraction of dose excreted into bile) [2, 5]: 24.20 ± 4.93%

Compound: CC(C)=CCC[C@](C)(O[C@@H]1O[C@H](CO[C@@H]2OC[C@H](O)[C@H](O)[C@H]2O)[C@@H](O)[C@H](O)[C@H]1O)[C@H]1CC[C@]2(C)[C@@H]1[C@H](O)C[C@@H]1[C@@]3(C)CC[C@H](O)C(C)(C)[C@@H]3[C@@H](O)C[C@]12C [Compound C4, Ginsenoside F3]
fe-U,0–12h (fraction of dose excreted into urine) [1, 6]: 24.46 ± 3.37% | fe-B,0–12h (fraction of dose excreted into bile) [2, 6]: 67.93 ± 8.80%

Compound: CC(C)=CCC[C@](C)(O[C@@H]1O[C@H](CO)[C@@H](O)[C@H](O)[C@H]1O)[C@H]1CC[C@]2(C)[C@@H]1[C@H](O)C[C@@H]1[C@@]3(C)CC[C@H](O)C(C)(C)[C@@H]3[C@@H](O[C@@H]3O[C@H](CO)[C@@H](O)[C@H](O)[C@H]3O[C@@H]3OC[C@@H](O)[C@H](O)[C@H]3O)C[C@]12C [Compound C10, Ginsenoside R1]
fe-U,0–12h (fraction of dose excreted into urine) [1, 4]: 40.28 ± 5.48%

fe-U,0–12h (fraction of dose excreted into urine) ([1]; rat, in vivo, iv): 48.30 ± 10.27%
Compound: CC(C)=CCC[C@](C)(O[C@@H]1O[C@H](CO[C@@H]2O[C@@H](CO)[C@H](O)[C@H]2O)[C@@H](O)[C@H](O)[C@H]1O)[C@H]1CC[C@]2(C)[C@@H]1[C@H](O)C[C@@H]1[C@@]3(C)CC[C@H](O)C(C)(C)[C@@H]3[C@@H](O[C@@H]3O[C@H](CO)[C@@H](O)[C@H](O)[C@H]3O)C[C@]12C [Compound C11, Ginsenoside Re4]

fe-U,0–12h (fraction of dose excreted into urine) ([1]; rat, in vivo, iv): 36.16 ± 7.04%
Compound: CC(C)=CCC[C@](C)(O[C@@H]1O[C@H](CO[C@@H]2O[C@H](CO)[C@@H](O)[C@H](O)[C@H]2O)[C@@H](O)[C@H](O)[C@H]1O)[C@H]1CC[C@]2(C)[C@@H]1[C@H](O)C[C@@H]1[C@@]3(C)CC[C@H](O)C(C)(C)[C@@H]3[C@@H](O[C@@H]3O[C@H](CO)[C@@H](O)[C@H](O)[C@H]3O)C[C@]12C [Compound C12, Notoginsenoside R3]

Compound: CC(C)=CCC[C@](C)(O[C@@H]1O[C@H](CO)[C@@H](O)[C@H](O)[C@H]1O)[C@H]1CC[C@]2(C)[C@@H]1[C@H](O)C[C@@H]1[C@@]3(C)CC[C@H](O)C(C)(C)[C@@H]3[C@@H](O[C@@H]3O[C@H](CO)[C@@H](O)[C@H](O)[C@H]3O[C@@H]3O[C@H](CO)[C@@H](O)[C@H](O)[C@H]3O)C[C@]12C [Compound C13, 20-Gluco-Ginsenoside Rf]
fe-U,0–12h (fraction of dose excreted into urine) ([1]; rat, in vivo, iv): 38.72 ± 6.57%

Compound: CC(C)=CCC[C@](C)(O[C@@H]1O[C@H](CO)[C@@H](O)[C@H](O)[C@H]1O)[C@H]1CC[C@]2(C)[C@@H]1[C@H](O)C[C@@H]1[C@@]3(C)CC[C@H](O[C@@H]4O[C@H](CO)[C@@H](O)[C@H](O)[C@H]4O)C(C)(C)[C@@H]3CC[C@]12C [Compound D1, Ginsenoside F2]
fe-B,0–12h (fraction of dose excreted into bile) [2, 5]: 7.46% and 7.46 ± 2.11%

Compound: C=C(CCC=C(C)C)[C@H]1CC[C@]2(C)[C@@H]1[C@H](O)C[C@@H]1[C@@]3(C)CC[C@H](O)C(C)(C)[C@@H]3[C@@H](O[C@@H]3O[C@H](CO)[C@@H](O)[C@H](O)[C@H]3O)C[C@]12C [Compound E1, Ginsenoside Rk3]
fe-B,0–12h (fraction of dose excreted into bile) ([2]; rat, in vivo, iv): 27.80 ± 7.01%

Compound: CC(C)=CC/C=C(\C)[C@H]1CC[C@]2(C)[C@@H]1[C@H](O)C[C@@H]1[C@@]3(C)CC[C@H](O)C(C)(C)[C@@H]3[C@@H](O[C@@H]3O[C@H](CO)[C@@H](O)[C@H](O)[C@H]3O)C[C@]12C [Compound E2, Ginsenoside Rh4]
fe-B,0–12h (fraction of dose excreted into bile) [2, 5]: 46.95 ± 6.46%

Compound: C=C(CCC=C(C)C)[C@H]1CC[C@]2(C)[C@@H]1[C@H](O)C[C@@H]1[C@@]3(C)CC[C@H](O)C(C)(C)[C@@H]3[C@@H](O[C@@H]3O[C@H](CO)[C@@H](O)[C@H](O)[C@H]3O[C@@H]3O[C@@H](C)[C@H](O)[C@@H](O)[C@H]3O)C[C@]12C [Compound E3, Ginsenoside Rg6]
fe-B,0–12h (fraction of dose excreted into bile) ([2]; rat, in vivo, iv): 31.31 ± 6.25%

fe-B,0–12h (fraction of dose excreted into bile) ([2]; rat, in vivo, iv): 29.36 ± 3.14%
Compound: CC(C)=CC/C=C(/C)[C@H]1CC[C@]2(C)[C@@H]1[C@H](O)C[C@@H]1[C@@]3(C)CC[C@H](O)C(C)(C)[C@@H]3[C@@H](O[C@@H]3O[C@H](CO)[C@@H](O)[C@H](O)[C@H]3O[C@@H]3O[C@@H](C)[C@H](O)[C@@H](O)[C@H]3O)C[C@]12C [Compound E4, Ginsenoside F4]
